For one data set, the system named is KM12 cells. Briefly: Cell viability assay (CellTiter-Glo) in KM12 cells. The conditions noted are these: for IC50: Homo sapiens, 72 h, KM12 cell viability, CellTiter-Glo, 3 days, read-out: IC50. It is filed as cell-based. (ATP-based viability assays read luminescence as a measure of living cells.)
A further data set has as its system TRK-fusions. The following applies: cited from earlier work.
For a further data set, the system named is KRAS-mutant H358 cells. The data set is described as follows: Cell viability assay (CellTiter-Glo) in H358 cells. The following applies: 1000 nM, 8-point 3-fold serial dilution, 3 days (FIG. 4B). It is filed as cell-based. The protocol: The kinase activity of TRK is known to play important roles in tumors expressing TRK-fusion proteins, as TRK kinase inhibitors compromise cell proliferation, survival, and induce marked clinical responses (Amatu et al., 2016; Drilon et al., 2018; Drilon et al., 2017; Khotskaya et al., 2017). […] Three days after treatment, cell viability was determined using the CellTiter-Glo kit following manufacturer's instructions. Cell viability was normalized to the mean values of 3 replicates of untreated cells. Dose-dependent response was analyzed following the least-squares non-linear regression method using the GraphPad Prism 5.0 software. Each data point in the figure represents the mean values of three technical replicates±standard deviation. […] More specifically, all bivalent compounds that had IC50 values smaller than 1000 nM in KM12 cells induced degradation of TPM3-TRKA (FIG. 1 and Table 2-4). […]
Cells were seeded at a density of 5000 cells per well in 96-well assay plates and treated with test compounds following a 12-point 2-fold serial dilution or a 8-point 3-fold dilution. Three days later, cell viability was determined using the CellTiter-Glo assay kit (Promega) according to the manufacturer's instructions. The dose-response curves were determined and IC50 values were calculated using the GraphPad Prism software following a nonlinear regression (least squares fit) method.

Data set [1] deals with T1, TPM3-TRKA fusion protein (Homo sapiens, UniProt P04629+P06753+Q96SW2). Briefly: Immunoblotting of TPM3-TRKA fusion protein in KM12 cells. The conditions noted are these: for time after adding compound at which significant degradation of TPM3-TRKA was detected: 100 nM (FIG. 2); for TPM3-TRKA protein levels / TPM3-TRKA protein levels, time course: 100 nM; for TPM3-TRKA protein levels: 16 hours (FIG. 1A-1C); for TPM3-TRKA protein levels, time course: indicated incubation time (FIG. 2). On the set-up: The resulted chimeric proteins always retain the kinase domain of TRK proteins; TPM3 (N-terminal fusion partner, natural gene fusion); endogenous in cells; host or cells: KM12 colon cancer cells. It is filed as cell-based. The protocol:
Specific exemplary bivalent compounds were characterized in KM12 cells. […] Cells were collected, lysed and subject to immunoblotting using an antibody specific to TRK proteins. GAPDH was included as the loading control. DMSO was used as the negative control.
KM12 cells were treated with DMSO or indicated compounds at 100 nM for 16 hours.
KM12 cells were treated with CPD-027, CPD-053, and CPD-060 at 100 nM for indicated incubation time. […]
KM12 or HEL cells were treated with a dose range of compound TR-123 or TR-123-negative. The latter lost binding to cereblon (CRBN) due to a chemical modification.
KM12 or HEL cells were treated with a single dose of compound TR-123 or combination with MG-132, Bortezomib, MLN4924 or Pomalidomide. […]
(§1) Cultured cells were washed with cold PBS once and lysed in cold RIPA buffer supplemented with protease inhibitors and phosphatase inhibitors (Beyotime Biotechnology). The solutions were then incubated at 4° C. for 30 minutes with gentle agitation to fully lyse cells. For tumor tissues, tumors were cut into small pieces, milled with cold RIPA buffer using a mechanical homogenizer and lysed for 1 hour at 4° C. Cell lysates were centrifuged at 13,000 rpm for 10 minutes at 4° C. and pellets were discarded. Total protein concentrations in the lysates were determined by BCA assays (Beyotime Biotechnology). Cell lysates were mixed with Laemmli loading buffer to 1× and heated at 99° C. for 5 min. Proteins were resolved on SDS-PAGE and visualized by chemiluminescence. Images were taken by a ChemiDoc MP Imaging system (Bio-Rad). Protein bands were quantitated using the software provided by Bio-Rad.
(In general: Immunoblotting shows a protein as a band on a membrane.)

Data set [2] addresses T1, TPM3-TRKA fusion protein. Briefly: Immunoblotting of TPM3-TRKA in KM12 subcutaneous xenograft tumors. The following applies: 10, 20, or 50 mg/kg intraperitoneally, single dose, four hours after administration (FIG. 3). It is filed as in vivo, Athymic nude mice. On the set-up: The resulted chimeric proteins always retain the kinase domain of TRK proteins; TPM3 (N-terminal fusion partner, natural gene fusion); from tissue; host or cells: KM12 subcutaneous xenograft tumors in athymic nude mice. As for the experimental part:
In addition to cultured cells, athymic nude mice bearing KM12 subcutaneous xenograft tumors at the right flank were intraperitoneally treated with 10, 20, or 50 mg/kg CPD-053, CPD-027, or CPD-060. Four hours after drug administration, animals were sacrificed for immunoblotting of TPM3-TPKA in homogenized xenograft tumor masses. The label “a” or “b” represents two different samples of the same xenograft tumor.
Athymic nude mice bearing KM12 subcutaneous xenograft tumors at the right flank were intraperitoneally treated with 10, 20, or 50 mg/kg CPD-053, CPD-027, or CPD-060, as indicated in FIG. 3. Four hours after drug administration, animals were sacrificed for immunoblotting of TPM3-TPKA in homogenized xenograft tumor chunks. The label “a” or “b” represents two different chunks of the same xenograft tumor.
Athymic nude mice bearing KM12 subcutaneous xenograft tumors at the right flank were intraperitoneally or orally treated with bivalent compounds at indicated dose. Eight hours after drug administration, animals were sacrificed for immunoblotting of TPM3-TPKA in homogenized xenograft tumor samples.
as §1
(§2) All animal experiments were performed under protocols approved by the Institutional Animal Care and Use Committee (IACUC) of Cullgen. Athymic nude mice (male, 5-weeks old) received 5 million KM12 cells subcutaneously inoculated at the right flank site. Ten days following inoculation, tumors were approximately 500 mm3 in size. Tumor-bearing mice were treated intraperitoneally with vehicle or bivalent compounds at indicated doses. Tumor sizes and body weight of mice were measured every 2 days. In addition, immunoblotting assays were employed to assess the levels of TRKA fusion proteins in xenograft tumors around 500 mm^3 in size following drug administration. At indicated hours after drug administration, selected mice were sacrificed, tumors were resected. Small chunks of tumors were homogenized for immunoblotting of TPM3-TPKA and other proteins as indicated.

Data set [3] relates to KM12 subcutaneous xenograft tumors. Briefly: KM12 subcutaneous xenograft tumor growth study. Format: in vivo, Athymic nude mice. As for the experimental part:
(§3) Athymic nude mice bearing KM12 subcutaneous xenograft tumors at the right flank were intraperitoneally treated with vehicle or 25 mg/kg CPD-060 once per day (qd), twice per day (bid), or once every two days (q2d). Tumor volumes were assessed every two days and expressed as length×width×width/2. Body weights of experimental mice were also measured to assess the toxicity of compounds.
(§4) Athymic nude mice bearing KM12 subcutaneous xenograft tumors at the right flank were treated with vehicle, 10-20 mg/kg TR-181 or TR-198 once per day (qd), or twice per day (bid) via oral gavage. Tumor volumes were assessed every two days and expressed as length×width×width/2. Body weights of experimental mice were also measured to assess the toxicity of compounds.
as §2

Data set [4] in a line: Body weight of xenograft-bearing mice (toxicity). It is filed as in vivo, Athymic nude mice. The protocol:
as §3, §4, §2

Data set [5] is described as follows: Mouse pharmacokinetic (PK) studies. Format: in vivo. The following applies: male, Swiss Albino, mouse, plasma; mice, 2 mg/kg intravenous injection and 20 mg/kg oral gavage, over 12 hours (FIG. 14). The protocol: To investigate the pharmacokinetics of bi-functional compounds, exemplified by TR-123, a single 20 mg/kg intraperitoneal injection was evaluated. […] Additionally, doses of 2 mg/kg TR-198 via intravenous injection and 20 mg/kg TR-198 via oral gavage were evaluated in mice.
A single 20 mg/kg intraperitoneal injection of compound TR-123 was evaluated. Plasma concentrations of TR-123 reported at each of the 6 time points (30 min, 1 h, 2 h, 4 h, 8 h, and 12 h post compound administration) are the average values from 3 test animals.
A single 2 mg/kg intravenous injection and 20 mg/kg oral gavage of TR-198 were evaluated in mice.
Plasma concentrations of TR-198 reported at each of the 6 time points (5 min, 30 min, 2 h, 4 h, 8 h, and 12 h post compound administration via IV, 30 min, 1 h, 2 h, 4 h, 8 h, and 12 h post compound administration via p.o.) are the average values from 3 test animals.
Standard PK studies were conducted using male Swiss Albino mice by Sai Life Sciences. A single 20 mg/kg intraperitoneal (IP) injection of compound TR-123 was evaluated. Plasma concentrations of TR-123 reported at each of the 6 time points (30 min, 1 h, 2 h, 4 h, 8 h, and 12 h post dosing) are the average values from 3 test animals. Error bars represent+SD.

What is called IC50 is the concentration at which inhibition is half-maximal. Broadly, the bioavailability is dose-corrected exposure relative to a reference, in per cent. Higher therefore signals much systemic uptake.

“Also recorded” adds a separate entry of the source. Read-outs that look alike come from different tables or passages of the source.

T1 sequence (P06753+P04629 fused): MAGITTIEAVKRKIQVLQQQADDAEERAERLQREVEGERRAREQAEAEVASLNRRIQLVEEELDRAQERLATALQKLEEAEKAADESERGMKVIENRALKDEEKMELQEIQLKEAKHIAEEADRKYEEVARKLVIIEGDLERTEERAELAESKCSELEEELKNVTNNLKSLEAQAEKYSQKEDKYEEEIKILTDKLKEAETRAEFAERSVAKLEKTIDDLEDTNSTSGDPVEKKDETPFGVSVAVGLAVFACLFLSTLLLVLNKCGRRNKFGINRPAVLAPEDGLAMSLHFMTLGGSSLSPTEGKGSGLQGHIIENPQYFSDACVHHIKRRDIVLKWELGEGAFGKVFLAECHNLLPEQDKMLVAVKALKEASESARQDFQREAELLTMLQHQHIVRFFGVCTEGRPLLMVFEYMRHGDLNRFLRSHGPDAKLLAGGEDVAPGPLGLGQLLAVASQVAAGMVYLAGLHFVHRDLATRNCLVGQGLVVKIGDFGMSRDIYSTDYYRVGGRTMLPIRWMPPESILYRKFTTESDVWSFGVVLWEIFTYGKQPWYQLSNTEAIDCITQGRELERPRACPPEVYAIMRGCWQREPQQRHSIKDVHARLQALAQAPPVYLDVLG
T1 sequence (Q96SW2 whole entry, the tested form may be a part): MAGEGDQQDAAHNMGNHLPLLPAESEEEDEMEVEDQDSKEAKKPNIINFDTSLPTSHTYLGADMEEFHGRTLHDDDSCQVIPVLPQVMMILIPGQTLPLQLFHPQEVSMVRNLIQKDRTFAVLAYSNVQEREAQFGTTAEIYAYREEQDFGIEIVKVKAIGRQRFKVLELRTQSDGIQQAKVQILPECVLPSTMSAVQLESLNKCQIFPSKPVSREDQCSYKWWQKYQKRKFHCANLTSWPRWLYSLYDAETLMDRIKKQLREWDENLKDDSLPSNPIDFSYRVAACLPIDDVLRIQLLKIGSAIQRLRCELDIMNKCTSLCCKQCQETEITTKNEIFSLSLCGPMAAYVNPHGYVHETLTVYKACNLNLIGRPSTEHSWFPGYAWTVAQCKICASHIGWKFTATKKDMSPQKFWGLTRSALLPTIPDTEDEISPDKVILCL
T1 sequence (Q16531 whole entry partner, the tested form may be a part): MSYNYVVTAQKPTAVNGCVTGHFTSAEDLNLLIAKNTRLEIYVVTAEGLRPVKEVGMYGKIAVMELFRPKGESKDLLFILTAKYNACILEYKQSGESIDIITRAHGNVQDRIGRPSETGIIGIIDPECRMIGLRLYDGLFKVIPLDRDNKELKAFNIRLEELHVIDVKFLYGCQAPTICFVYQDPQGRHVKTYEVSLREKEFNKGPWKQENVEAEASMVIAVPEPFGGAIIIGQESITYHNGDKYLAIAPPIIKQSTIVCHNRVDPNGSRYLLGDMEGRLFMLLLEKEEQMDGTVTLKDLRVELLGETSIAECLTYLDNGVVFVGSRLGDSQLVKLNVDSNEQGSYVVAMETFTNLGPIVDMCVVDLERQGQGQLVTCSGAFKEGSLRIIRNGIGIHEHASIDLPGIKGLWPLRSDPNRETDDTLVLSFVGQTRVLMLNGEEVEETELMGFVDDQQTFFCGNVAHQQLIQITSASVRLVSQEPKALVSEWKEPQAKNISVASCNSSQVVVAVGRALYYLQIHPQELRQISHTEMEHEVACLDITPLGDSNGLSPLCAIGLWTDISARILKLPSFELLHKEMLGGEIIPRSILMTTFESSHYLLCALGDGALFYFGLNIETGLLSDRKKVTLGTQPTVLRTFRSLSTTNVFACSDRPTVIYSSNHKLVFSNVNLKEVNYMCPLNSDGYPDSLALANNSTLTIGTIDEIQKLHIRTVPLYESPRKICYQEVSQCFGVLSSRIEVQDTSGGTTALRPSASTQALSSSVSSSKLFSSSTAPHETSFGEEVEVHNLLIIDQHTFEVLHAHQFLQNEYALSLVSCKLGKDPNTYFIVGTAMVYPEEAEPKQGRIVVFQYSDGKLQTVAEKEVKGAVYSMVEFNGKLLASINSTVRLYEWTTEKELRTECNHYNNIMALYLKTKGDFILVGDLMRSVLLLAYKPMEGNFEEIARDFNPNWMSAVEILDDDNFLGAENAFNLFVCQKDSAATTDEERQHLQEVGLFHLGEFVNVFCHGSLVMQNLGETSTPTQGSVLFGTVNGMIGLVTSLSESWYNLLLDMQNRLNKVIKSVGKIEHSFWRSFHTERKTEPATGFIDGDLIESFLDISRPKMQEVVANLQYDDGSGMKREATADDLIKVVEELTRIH

Consider `O=C(Nc1cnn2ccc(N3CCC[C@@H]3c3cc(F)ccc3F)nc12)N1CC[C@H](O)C1` [LOXO-101, larotrectinib], for which the IC50 in the data set on KM12 cells (Table 3) stood at 25 nM. Further, in the data set with TRK-fusions (phase 2 (Drilon et al., 2018)), the “patients who responded to the therapy” value is on record as 75%. Also, in the data set on TRK-fusions (phase 2, at 1 year (Drilon et al., 2018)), the patients remaining progression-free is 55%.
With `O=C1CCC(N2C(=O)c3cccc(NCCCC(=O)N4CCN(c5ccc(C(=O)Nc6n[nH]c7ccc(Cc8cc(F)cc(F)c8)cc67)c(NC6CCOCC6)c5)CC4)c3C2=O)C(=O)N1` (stereo not shown) [CPD-053, N-(5-(3,5-Difluorobenzyl)-1H-indazol-3-yl)-4-(4-(4-((2-(2,6-dioxopiperidin-3-yl)-1,3-dioxoisoindolin-4-yl)amino)butanoyl)piperazin-1-yl)-2-((tetrahydro-2H-pyran-4-yl)amino)benzamide], the “viability of KM12 cells” value in the data set on KM12 cells (500 nM, 12-point 2-fold serial dilution, 3 days (FIG. 4A)) is listed as “inhibited the viability; also recorded: dose-dependently suppressed viability”. Besides, the “viability of KM12 cells” value in the data set on KM12 cells (1000 nM, 8-point 3-fold serial dilution, 3 days (FIG. 4B)) was “significantly inhibited the viability”. In addition, the concentration for half-maximal inhibition (IC50) with KM12 cells (Table 2) came to 1.5 nM. Besides, the “viability of H358 cells” value with KRAS-mutant H358 cells is “did not affect cell viability”. Further, at TPM3-TRKA fusion protein [1], the “time after adding compound at which significant degradation of TPM3-TRKA was detected” value is 15 min; the TPM3-TRKA protein levels entry is on record as “particularly effective in reducing TPM3-TRKA protein levels”; the “TPM3-TRKA protein levels, time course” value is “rapidly reduced TPM3-TRKA protein levels”. On TPM3-TRKA fusion protein [2], the “TPM3-TRKA protein levels in KM12 subcutaneous xenograft tumors” value is given as “significantly reducing TPM3-TRKA protein levels”.
For `O=C(CN1CCN(c2cccc(-c3cnc4ccc(N5CCC[C@@H]5c5cccc(F)c5)nn34)n2)CC1)NCCNc1cccc2c1C(=O)N(C1CCC(=O)NC1=O)C2=O` (stereo partly drawn) [CPD-060, N-(2-((2-(2,6-dioxopiperidin-3-yl)-1,3-dioxoisoindolin-4-yl)amino)ethyl)-2-(4-(6-(6-((R)-2-(3-fluorophenyl)pyrrolidin-1-yl)imidazo[1,2-b]pyridazin-3-yl)pyridin-2-yl)piperazin-1-yl)acetamide], the concentration for half-maximal inhibition (IC50) in the data set on KM12 cells (Table 2) turned out to be 6 nM. In addition, the “growth of KM12 subcutaneous xenograft tumors” value in data set [3] (25 mg/kg intraperitoneally qd, bid or q2d (FIG. 12A)) is recorded as “significantly repressed the growth”. Further, in data set [4] (25 mg/kg intraperitoneally qd, bid or q2d (FIG. 12B)), the body weight result is given as “without inducing substantial weight losses”. At TPM3-TRKA fusion protein [1], the “time after adding compound at which significant degradation of TPM3-TRKA was detected” value is 15 min; the TPM3-TRKA protein levels result was “particularly effective in reducing TPM3-TRKA protein levels”; the “TPM3-TRKA protein levels, time course” value is “rapidly reduced TPM3-TRKA protein levels”. Further, the “TPM3-TRKA protein levels in KM12 subcutaneous xenograft tumors” value on TPM3-TRKA fusion protein [2] was “significantly reducing TPM3-TRKA protein levels”.
With `O=C1CCC(N2C(=O)c3ccc(N4CC(CN5CCN(c6cccc(-c7cnc8ccc(N9CCC[C@@H]9c9cccc(F)c9)nn78)n6)CC5)C4)cc3C2=O)C(=O)N1` (stereo partly drawn) [TR-198, 2-(2,6-dioxopiperidin-3-yl)-5-(3-((4-(6-(6-((R)-2-(3-fluorophenyl)pyrrolidin-1-yl)imidazo[1,2-b]pyridazin-3-yl)pyridin-2-yl)piperazin-1-yl)methyl)azetidin-1-yl)isoindoline-1,3-dione], the IC50 in the data set on KM12 cells (Table 3) was 5.5 nM. Further, the bioavailability in data set [5] is around 16%. Moreover, the “growth of KM12 subcutaneous xenograft tumors” value in data set [3] (10-20 mg/kg qd or bid via oral gavage (FIG. 15A)) was “significant in vivo anti-tumor activity; also recorded: significantly repressed the growth”. Also, the body weight result in data set [4] (10-20 mg/kg qd or bid via oral gavage (FIG. 15B)) is recorded as “without inducing substantial weight losses”.

Values taken from patent publication US12065442B2, “Tropomyosin receptor kinase (TRK) degradation compounds and methods of use” (Cullgen (Shanghai), Inc., priority 2018, dated 2024).
